ChEMBL document CHEMBL1201862, “PubChem BioAssay data set” (2004)
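Cells were grown in 96-well plates and exposed to each compound for 48 hours at five concentrations; endpoints were interpolated linearly between bracketing concentrations, or set to the highest concentration if not reached. GI50 marks 50% less growth.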 The source made the active and inactive calls. Rule as the data show it: active = GI50 up to about 1.1 µM and inactive = higher.

Tests used:
Assay in all cases: DTP human tumour cell line panel, 48 h
BT-549 = tested on: BT-549
COLO 205 = tested on: COLO 205
DU-145 = tested on: DU-145
HCT-116 = tested on: HCT-116
HL-60 = tested on: HL-60
HOP-92 = tested on: HOP-92
K562 = tested on: K562
LOX IMVI = tested on: LOX IMVI
MDA-MB-231 = tested on: MDA-MB-231
MOLT-4 = tested on: MOLT-4
NCI-H226 = tested on: NCI-H226
NCI-H23 = tested on: NCI-H23
OVCAR-3 = tested on: OVCAR-3
OVCAR-8 = tested on: OVCAR-8
RPMI-8226 = tested on: RPMI-8226
SK-MEL-5 = tested on: SK-MEL-5
SNB-19 = tested on: SNB-19
SNB-75 = tested on: SNB-75
SW-620 = tested on: SW-620
UACC-62 = tested on: UACC-62

Measured: GI50

COc1c2ccoc2cc2oc(=O)ccc12 [BERGAPTEN]
inactive: BT-549 49 µM | COLO 205 > 100 µM | DU-145 > 100 µM | HCT-116 > 100 µM | HL-60 > 100 µM | HOP-92 > 100 µM | K562 > 100 µM | LOX IMVI > 100 µM | MDA-MB-231 > 100 µM | MOLT-4 > 100 µM | NCI-H226 > 100 µM | NCI-H23 > 100 µM | OVCAR-3 > 100 µM | OVCAR-8 > 100 µM | RPMI-8226 > 100 µM | SK-MEL-5 > 100 µM | SNB-19 > 100 µM | SNB-75 89.1 µM | SW-620 > 100 µM | UACC-62 > 100 µM
